Assay results taken from patent US7498403B2, “Peptides capable of binding to titanium silver silicone” (Japan Science and Technology Agency, priority 2003, dated 2009).

Assays:
[1] = Binding ability of phage clones to silver particles; conditions: peptide expressed on phage clone
Protocol: (§1) By using the phage clone obtained in Example 1, the binding ability to titanium was evaluated by the following experiment. The same method as for panning operation shown in Example 1 was performed. The difference between Example 1 is that the stirring time of titanium and phage clone was 1 hour; the Tween 20 concentration and BSA concentration in each solution was 0.5%, and 1%, respectively, and that the titer of the phage added was 10^9 pfu for clone from D12, and 10^11 pfu for clone from C7C.
(§2) To investigate the binding specificity of phage clone expressing a peptide comprising an amino acid sequence shown in SEQ ID NO: 3 to metal material, to 10 mg each of gold (purity>99.9%, particle diameter<150 μm)/silver (purity>99.9%, particle diameter<75 μm)/copper (purity>99%, particle diameter 75-150 μm)/platinum (purity>99.9%, particle diameter<75 μm)/iron (purity>99.9%, particle diameter<150 μm)/tin (purity>99.9%, particle diameter<150 μm)/zinc (purity>99.9%, particle diameter<150 μm)/chrome (purity>98%, particle diameter>10 μm)/cobalt (purity>99%, particle diameter<75 μm)/silicon (purity>99%, particle diameter<150 μm) (Kojundo Chemical Lab., Saitama), the binding ability to each metal was examined by the same method of Example 2, by using 10^10 pfu/ml of phage clone expressing a peptide comprising an amino acid sequence shown in SEQ ID NO: 3.
(§3) In order to confirm whether the binding form to silver or silicone, and the sequence specificity of the phage clone expressing a peptide comprising an amino acid sequence shown in SEQ ID NO: 3 is similar as in the case of binding to titanium, the binding ability of the alanine substituted-mutant phage of SEQ ID NOs: 4, 5, 7, 8 used in Example 4 to silver/silicon was examined by the method shown in Example 2.

[2] = Adsorption of synthetic peptide to silicon particles, Langmuir adsorption isotherm fitting; assay type: binding; conditions: Si
Protocol: (§4) In order to confirm whether the synthetic peptide comprising an amino acid sequence shown in SEQ ID NO: 3 binds to titanium surface, the binding ability of the synthetic peptides comprising an amino acid sequence shown in SEQ ID NO: 3 to titanium particles was examined. 10 mg of titanium particles used in Example 1 was put into an Eppendorf tube, washed twice with 50 mM HEPES-NaOH, 150 mM NaCl. Then, 100 μl of 5 to 40 μM of the synthetic peptides of SEQ ID NO: 3, and the mixture was stirred by rotating by using a rotary shaker rotator RT-50 (Taitec) at room temperature for 2 hours. By centrifuging with a desk-top centrifuge H-1300 (Kokusan, Tokyo), at 13,000 rpm, for 5 sec., the supernatant was removed, mixed with fluoro aldehyde (Pias Rockford, Ill.), and by using a spectrofluorometer (Nippon Bunko, Tokyo), at excitation wave length 342 nm, fluorescent wave length 437 nm, the binding level to titanium was calculated from the peptide concentration of the supernatant. The relative surface area of titanium was calculated from the density and mean particle diameter. Further, the binding ability of the synthetic peptide comprising an amino acid sequence shown in SEQ ID NO: 2 to silicone/tin used in Example 13 was examined by the same method. […]

[3] = Binding ability of phage clones to silicon particles; conditions: peptide expressed on phage clone
Protocol: as §1, §2, §3

[4] = Binding ability of phage clones to titanium particles (eluted phage titer / added phage titer); conditions: peptide expressed on phage clone; for binding ability to titanium: titanium particles, mutants compared with SEQ ID NO: 3 clone
Protocol: 10 mg of titanium particle with a particle diameter of […] (Sumitomo Titanium Corporation, Hyogo) was put into a 1.5 ml-Eppendorf tube, and washed twice with a solution of 500 μl of 50 mM tris (hydroxymethyl) aminomethane (herein after referred to as tris (Kishida Chemical (Osaka)) HCl buffer pH 7.5; 150 mM of sodium chloride (Wako Pure Chemicals, Osaka) solution (herein after referred to as TBS) supplemented with 0.1% bovine serum albumin (herein after referred to as BSA), 0.1% Polyoxyethylenesorbitan monolaurate (herein after referred as Tween-20 (Sigma, St. Louis)). Washing of titanium particles was performed by centrifuging with a desktop centrifuge H1300 (Kokusan) at 13,000 rpm, 5 sec, to precipitate titanium particles and to remove supernatant. After washing, in order to block the non-specific adsorption of the phage, the mixture was stirred by rotating with 1 ml of the same solution for 30 min at room temperature by using a rotary shaker rotator RT-50 (Taitec).
By centrifuging with a desktop centrifuge H1300 (Kokusan) at 13,000 rpm, 5 sec, titanium particles were precipitated, the supernatant was removed, and then 1 ml TBS containing peptide-expressing phage library, D12 library expressing linear random peptide of 12 residues (New England Biolabs, Beverly), 17×10^11 plaque-forming unit (herein after referred to as pfu), or C7C library expressing cyclic randam peptide of 7 residues (New Engand Biolabs) 2.0×10^11 pfu, 0.1% BSA and 0.1% Tween-20 solution were added, and stirred by rotating for 2 hours, at room temperature with a rotary shaker, rotator RT-50.
By centrifuging with a desktop centrifuge H1300 (Kokusan) at 13,000 rpm, 5 sec, the supernatant was removed, and the resultant was washed 10 times with 1 ml of TBS, 0.1% Tween-20 solution. Washing was performed by centrifuging at 8000×g, 5 sec, by precipitating titanium particles. After removing washing solution, 1 ml of 0.2 M glycine (Wako Pure Chemicals), HCl buffer pH 2.2 were added and stirred by rotating for 10 min at room temperature with rotator RT-50 (Taitec) to elute phage bound to titanium. Titanium was precipitated by centrifugation, and the supernatant was moved to a separate 1.5 ml-Eppendorf tube. Then, 150 μl of 1M tris/HCl buffer pH 9.1 was added to neutralize, and phage titer in the solution (plaque forming ability per unit solution) was measured according to a common procedure (Molecular Cloning Third Edition, Cold Spring Harbor Laboratory Press).
as §1
For clone strongly bound particularly with titanium (SEQ ID NO: 3) in Example 2, point mutants substituted by alanine having only one methyl group in the side chain was prepared and the change of binding ability to titanium was examined for each mutant phage. As point mutant comprises alanine in the 6th position in the expressed sequence, mutants were prepared for all the residues except the 6th residue. The preparation of point mutants was performed by Kunkel method (Molecular Cloning Third Edition, Cold Spring Harbor Laboratory Press). Synthetic DNAs used for preparing point mutants are shown in FIG. 8 (SEQ ID NOs: 40 to 50). The introduction of point mutation was confirmed by determining the DNA sequence of phage DNA. DNA sequencing was performed in the same manner as Example 1. The binding ability to titanium of the obtained point mutants was measured by the method shown in Example 2, by adjusting the phage amount added to 10^10 pfu.
The deletion mutants were prepared by the method shown schematically in FIG. 10. […]

[5] = Binding ability of phage clone to copper particles; conditions: peptide expressed on phage clone
Protocol: as §1, §2

[6] = Binding ability of phage clone to iron particles; conditions: peptide expressed on phage clone
Protocol: as §1, §2

[7] = QCM-D300 quartz crystal microbalance analysis of phage binding to titanium sensor; conditions: phage clone; frequency and dissipation (viscoelasticity), sensor blocked with BSA
Protocol: As for the clone strongly bound particularly with titanium (expressing peptide of SEQ ID NO: 3), the binding form of titanium surface and phage was examined, by measuring with QCM-D300 (Q-sense AB, Goeteborg), which is a device for quantification of interaction with a quartz crystal microbalance.
For a quartz crystal microbalance, titanium sensor being a genuine part of QCM-D300 was used. The temperature was fixed at 24.99° C., and the actual measurement value was from around 24.68° C. to 24.70° C. It was measured in a condition of blocking the sensor with BSA, and in a condition without blocking. When blocking with BSA is not performed, after measuring the standard value with TBS, the phage solution adjusted so that the phage titer becomes 10^10 pfu/ml was measured continuously. When blocking with BSA is performed, after measuring the standard value with TBS, blocking was conducted by incubating for about 10 min with TBS, 0.1% BSA, and after washing again migrated BSA with TBS, the phage solution adjusted so that the phage titer becomes 10^11 pfu/ml was measured continuously.
From the results shown in FIG. 6, it is clear that the phage clone is bound to the sensor from the change of frequency, under the absence of BSA. […]

[8] = Adsorption of synthetic peptide to titanium particles, Langmuir adsorption isotherm fitting; assay type: binding; conditions: Ti
Protocol: as §4

RALPDA [SEQ ID NO: 2]
binding ability to silver [1]: binds | qm (maximum adsorption level) [2]: 2.1 ± 0.3 × 10^−7 mole/m^2 | Kd ([2]; read-out: Kd (dissociation constant)): 13.2 ± 4 µM | binding ability to silicon [3]: binds | binding ability to titanium [4]: binds

RKLPDA [SEQ ID NO: 1]
binding ability to titanium [4]: not affected by the deletion

RKLPDAPGMHTW [SEQ ID NO: 3, tested on phage clone and as synthetic peptide]
binding to copper [5]: below the detection limit | binding to iron [6]: below the detection limit | binding form of phage to titanium surface [7]: bound perpendicularly to titanium surface | Kd ([8]; synthetic peptide 5 to 40 μM, 50 mM HEPES-NaOH, 150 mM NaCl, room temperature, 2 hours, read-out: Kd (dissociation constant)): 11.1 ± 2.8 µM | qm (maximum adsorption level) ([8]; synthetic peptide, Langmuir fitting): 2.5 ± 0.3 × 10^−6 mole/m^2 | binding ability to titanium treated with hydrogen peroxide ([4]; titanium particles treated with 3% hydrogen peroxide for 1 hour): increased | binding ability to titanium [4]: much higher

SEQ ID NO: 4: e3-2-3 mutant, 1st amino acid residue substituted by Ala (AKLPDAPGMHTW)
binding ability to silver [1]: same trend as for titanium | binding ability to silicon [3]: same trend as for titanium | binding ability to titanium [4]: significantly impaired

SEQ ID NO: 5: e3-2-3 mutant, 2nd amino acid residue substituted by Ala (RALPDAPGMHTW)
binding ability to silver [1]: same trend as for titanium | binding ability to silicon [3]: same trend as for titanium | binding ability to titanium [4]: increased

SEQ ID NO: 7: e3-2-3 mutant, 4th amino acid residue substituted by Ala (RKLADAPGMHTW)
binding ability to silver [1]: same trend as for titanium | binding ability to silicon [3]: same trend as for titanium | binding ability to titanium [4]: the most significantly impaired

SEQ ID NO: 8: e3-2-3 mutant, 5th amino acid residue substituted by Ala (RKLPAAPGMHTW)
binding ability to silver [1]: same trend as for titanium | binding ability to silicon [3]: same trend as for titanium | binding ability to titanium [4]: significantly impaired

SEQ ID NO: 15: Ala is added/inserted to N terminal of e-3-2-3 (ARKLPDAPGMHTW)
binding ability to titanium [4]: increase of the binding ability
